Measured values from ChEMBL document CHEMBL1139030, “Inhibition of jack bean urease by organobismuth compounds” (Bioorg Med Chem Lett, 2006).
Calls of active or inactive are those of the source. The rule behind the calls is not given here.

Target: Urease (Canavalia ensiformis) (UniProt P07374)
Assay: Inhibitory activity against jack bean urease

Sequence of UniProt P07374 (P07374 whole entry, looked up): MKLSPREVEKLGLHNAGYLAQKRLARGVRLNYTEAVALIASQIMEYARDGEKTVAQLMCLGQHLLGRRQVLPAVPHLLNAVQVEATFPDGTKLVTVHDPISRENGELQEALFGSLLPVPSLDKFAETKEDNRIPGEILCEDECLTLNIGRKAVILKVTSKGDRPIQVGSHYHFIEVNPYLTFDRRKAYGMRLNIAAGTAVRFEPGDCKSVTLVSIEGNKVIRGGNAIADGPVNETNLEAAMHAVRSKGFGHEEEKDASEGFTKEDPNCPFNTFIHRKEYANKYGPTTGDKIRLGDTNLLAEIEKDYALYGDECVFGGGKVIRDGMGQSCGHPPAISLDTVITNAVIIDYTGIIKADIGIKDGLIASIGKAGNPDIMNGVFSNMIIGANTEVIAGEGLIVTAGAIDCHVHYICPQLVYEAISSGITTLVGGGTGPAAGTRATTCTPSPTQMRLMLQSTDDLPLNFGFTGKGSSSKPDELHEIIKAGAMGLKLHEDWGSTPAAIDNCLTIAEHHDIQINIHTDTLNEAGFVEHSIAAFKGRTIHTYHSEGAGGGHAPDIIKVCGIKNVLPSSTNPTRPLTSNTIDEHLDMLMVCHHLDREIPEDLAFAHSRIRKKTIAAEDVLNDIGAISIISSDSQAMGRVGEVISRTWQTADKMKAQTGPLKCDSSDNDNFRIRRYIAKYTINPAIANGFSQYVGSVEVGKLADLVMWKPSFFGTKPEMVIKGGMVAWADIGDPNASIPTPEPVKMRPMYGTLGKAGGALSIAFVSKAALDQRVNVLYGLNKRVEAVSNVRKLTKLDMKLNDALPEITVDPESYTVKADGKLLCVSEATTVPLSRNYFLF

## 4-[bis(4-cyanophenyl)bismuthanyl]benzonitrile
  Activity: Active

## 4-[bis(4-cyanophenyl)difluorobismuthanyl]benzonitrile
  Activity: Active

## TRIPHENYLBISMUTHINE
  Activity: Active

## [sequence]
  Activity: Active

## difluorotris(2,4,6-trimethylphenyl)bismuthane
  Activity: Active

## difluorotris(4-fluorophenyl)bismuthane
  Activity: Active

## difluorotris(4-methylphenyl)bismuthane
  Activity: Active

## difluorotris[4-(trifluoromethyl)phenyl]bismuthane
  Activity: Active

## ethyl 4-{bis[4-(ethoxycarbonyl)phenyl]bismuthanyl}benzoate
  Activity: Active

## ethyl 4-{bis[4-(ethoxycarbonyl)phenyl]difluorobismuthanyl}benzoate
  Activity: Active

## trip-tolylbismuthine
  Activity: Active

## tris(4-(trifluoromethyl)phenyl)bismuthine
  Activity: Active

## tris(4-fluorophenyl)bismuth dichloride
  Activity: Active

## tris(4-fluorophenyl)bismuthine
  Activity: Active
